Several values for one entry are separate records, joined by “and”; a condition that tells them apart may be missing. Equal values may be shown once.
What was measured:
Leishmania donovani = assay: Leishmania intramacrophage assay; format: functional, organism-based; conditions: for IC50: Leishmania donovani
Trypanosoma brucei = assay: Trypanosoma brucei 72 hour study; format: functional, organism-based; conditions: for IC50: Trypanosoma brucei, 72 h
[1] = In vitro enzyme assay to detect hydrolysis of chlorophenol red-beta-D-[…] directly proportional to the number of Toxoplasma stably expressing beta-galactosidase; format: functional, organism-based, Toxoplasma gondii; conditions: for IC50: Toxoplasma gondii
[2] = system: Mycobacterium tuberculosis; assay: Cornell M. t heat shock assay; format: functional, organism-based; conditions: for IC50: Mycobacterium tuberculosis
[3] = microbe, parasite or virus in culture; conditions: Mycobacterium tuberculosis, 96 h, read-out: pIC50 (converted)
[4] = microbe, parasite or virus in culture; conditions: Mycobacterium tuberculosis, 72 h, read-out: pIC50 (converted)
Plasmodium falciparum = assay: Calibr Malaria Delayed Death Assay SOP; format: functional, organism-based; conditions: for IC50: Plasmodium falciparum
ClpP1P2 = ClpP1P2 (Mycobacterium tuberculosis (strain ATCC 25618 / H37Rv), UniProt P9WPC3+P9WPC5); assay: in vitro assay to detect presence of AMC directly proportional to the activity of ClpP1P2. GHDDI collaboration.; format: functional
Histidine--tRNA ligase [5] = target: T1, Histidine--tRNA ligase (Trypanosoma cruzi (strain CL Brener), UniProt Q4DA54); assay: Trypanosoma cruzi histidyl tRNA synthetase (Tc-HisRS); format: functional
T1 sequence (Q4DA54 whole entry): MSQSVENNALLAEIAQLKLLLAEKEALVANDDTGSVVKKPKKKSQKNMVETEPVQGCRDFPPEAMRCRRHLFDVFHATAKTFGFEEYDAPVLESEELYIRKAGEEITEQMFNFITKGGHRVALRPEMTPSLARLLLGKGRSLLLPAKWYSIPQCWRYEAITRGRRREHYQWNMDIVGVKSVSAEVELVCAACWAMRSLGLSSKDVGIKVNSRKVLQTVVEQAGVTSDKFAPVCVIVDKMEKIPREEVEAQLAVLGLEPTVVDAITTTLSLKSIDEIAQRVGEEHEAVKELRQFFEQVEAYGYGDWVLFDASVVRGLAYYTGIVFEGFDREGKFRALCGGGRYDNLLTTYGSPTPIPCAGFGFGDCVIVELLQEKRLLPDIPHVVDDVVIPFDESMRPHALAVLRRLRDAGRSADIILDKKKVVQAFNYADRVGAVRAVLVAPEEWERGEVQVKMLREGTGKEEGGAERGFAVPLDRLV

Wolbachia pipientis = assay: Anti-Wolbachia Cell-Based Screen; format: functional
Histidine--tRNA ligase [6] = target: T2, Histidine--tRNA ligase (Leishmania infantum, UniProt A4I591); assay: Leishmania infantum Histidine tRNA synthetase (LdHisRS); format: functional
T2 sequence (A4I591 whole entry): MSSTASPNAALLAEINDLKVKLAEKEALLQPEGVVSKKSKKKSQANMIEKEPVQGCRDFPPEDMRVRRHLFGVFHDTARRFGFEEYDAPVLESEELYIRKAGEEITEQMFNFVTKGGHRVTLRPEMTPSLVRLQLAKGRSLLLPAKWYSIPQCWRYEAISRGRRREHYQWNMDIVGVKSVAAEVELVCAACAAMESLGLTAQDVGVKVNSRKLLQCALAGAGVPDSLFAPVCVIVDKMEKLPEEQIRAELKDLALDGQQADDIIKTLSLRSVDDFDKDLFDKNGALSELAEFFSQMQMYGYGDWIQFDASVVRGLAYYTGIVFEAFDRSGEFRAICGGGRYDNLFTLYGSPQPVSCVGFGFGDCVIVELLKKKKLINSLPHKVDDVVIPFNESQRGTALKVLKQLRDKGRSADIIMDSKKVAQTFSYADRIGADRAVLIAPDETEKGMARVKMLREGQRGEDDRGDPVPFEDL

[7] = target: T3, Coenzyme A biosynthesis bifunctional protein CoaBC (Mycobacterium tuberculosis (strain ATCC 25618 / H37Rv), UniProt P9WNZ1); assay: Biomol Green assay for MtCoaBC inhibitor, OD650 read; format: functional
T3 sequence (P9WNZ1 whole entry): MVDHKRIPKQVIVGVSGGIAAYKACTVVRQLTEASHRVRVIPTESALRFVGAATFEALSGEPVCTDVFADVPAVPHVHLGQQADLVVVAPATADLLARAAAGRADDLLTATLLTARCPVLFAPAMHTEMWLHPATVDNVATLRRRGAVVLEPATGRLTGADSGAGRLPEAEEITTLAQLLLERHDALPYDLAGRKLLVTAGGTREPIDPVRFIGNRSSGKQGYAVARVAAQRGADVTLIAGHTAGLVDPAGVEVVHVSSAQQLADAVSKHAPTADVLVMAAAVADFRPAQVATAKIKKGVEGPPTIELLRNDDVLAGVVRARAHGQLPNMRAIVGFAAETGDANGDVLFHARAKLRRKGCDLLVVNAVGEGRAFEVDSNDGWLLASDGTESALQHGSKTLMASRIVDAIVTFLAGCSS

Tryptophan--tRNA ligase = Tryptophan--tRNA ligase (Mycobacterium tuberculosis (strain ATCC 25618 / H37Rv), UniProt P9WFT3); assay: Biochemical assay for Mt-TrpRS; format: functional
Tryptophan--tRNA ligase, sequence (P9WFT3 whole entry): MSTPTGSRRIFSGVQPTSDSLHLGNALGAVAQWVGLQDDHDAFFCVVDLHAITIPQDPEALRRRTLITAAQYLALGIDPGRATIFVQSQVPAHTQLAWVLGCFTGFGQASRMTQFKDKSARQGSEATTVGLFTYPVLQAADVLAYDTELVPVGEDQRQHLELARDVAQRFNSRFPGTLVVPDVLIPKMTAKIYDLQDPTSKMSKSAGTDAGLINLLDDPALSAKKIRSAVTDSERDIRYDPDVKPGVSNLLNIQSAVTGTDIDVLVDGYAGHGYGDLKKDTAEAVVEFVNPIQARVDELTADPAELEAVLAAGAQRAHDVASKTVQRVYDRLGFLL

ClpP1P2, sequence (P9WPC5 whole entry): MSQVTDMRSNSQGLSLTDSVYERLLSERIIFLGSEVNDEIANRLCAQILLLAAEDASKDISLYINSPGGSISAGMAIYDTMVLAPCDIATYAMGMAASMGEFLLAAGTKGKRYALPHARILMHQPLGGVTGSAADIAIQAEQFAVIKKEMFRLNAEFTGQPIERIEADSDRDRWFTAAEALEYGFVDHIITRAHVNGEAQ
ClpP1P2, sequence (P9WPC3 whole entry): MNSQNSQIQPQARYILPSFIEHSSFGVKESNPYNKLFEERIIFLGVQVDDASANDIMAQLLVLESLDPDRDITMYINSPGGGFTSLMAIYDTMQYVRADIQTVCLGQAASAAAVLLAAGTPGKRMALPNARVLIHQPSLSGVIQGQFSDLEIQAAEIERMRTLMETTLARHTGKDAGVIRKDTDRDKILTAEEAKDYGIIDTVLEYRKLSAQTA

| SMILES | pIC50 (Leishmania donovani) | IC50 (Leishmania donovani) [µM] | pIC50 (Trypanosoma brucei) | IC50 (Trypanosoma brucei) [µM] | IC50 [1] [µM] | IC50 [3] [µM] | IC50 [4] [µM] | further results |
| --- | --- | --- | --- | --- | --- | --- | --- | --- |
| CCCc1cc(=O)[nH]c(-n2nc(C3CC3)cc2N)n1 | 4.51 | 39.6 | 5.268 and 5.368 | 5.23 | 1.95 | 23.8 | 16.1 | pIC50 [1]: 5.649; IC50 [2]: 6.14 µM |
| CC(C)c1cc(=O)[nH]c(-n2nc(C3CC3)cc2N)n1 | 4.627 | 40.3 | 5.692 and 5.673 | 2.09 |  | 11.5 | 12.5 | pIC50 [1]: 6.102 and 5.757; IC50 [2]: 4.63 µM |
| CCc1cc(=O)[nH]c(-n2nc(C3CC3)cc2NC(=O)C2CC2)n1 | 4.573 | 29.8 | 5.404 and 5.398 | 3.41 | 1.58 | 11.4 | 12.5 | pIC50 [1]: 5.904 |
| O=C(c1cc(-c2ccn(CC3CC3)n2)n2ccccc12)N1CCOCC1 | 4.802 | 18.9 | 5.586 and 5.592 and 5.253 |  |  | > 50.1 | 27.8 | pIC50 (Plasmodium falciparum): 5.917; IC50 (Plasmodium falciparum): 1.01 µM; IC50 (ClpP1P2): > 100 µM |
| Cc1[nH]/c(=N\C(=O)c2csc(NCC(C)C)n2)sc1C | 4.614 | 19.4 | 5.208 and 5.15 | 6.25 | 4.62 |  |  |  |
| CCn1ncc(-c2cc(C(F)(F)F)nc(N3CCC(N)CC3)n2)c1C |  | 11.9 | 5.225 and 5.224 | 5.74 |  | > 50.1 | > 50.1 | IC50 (Histidine--tRNA ligase [5]): > 100 µM; pIC50 [1]: 5.222 and 5.563 |
| CN1CCN(CC(NCc2cccc(O)c2)c2ccccc2)CC1 (stereo not given) |  | 13.7 | 5.312 and 5.375 | 4.3 |  |  |  |  |
| Cc1ccc(CNC(CN2CCN(C)CC2)c2ccccc2)cc1C (stereo not given) |  | 4.57 | 5.711 and 5.621 | 1.7 |  |  |  |  |
| COc1c(C)cnc(CN(C)C2CCCCC2)c1C | 4.733 | 13.3 | 5.179 and 5.161 | 6.48 | 4.88 |  |  | pIC50 [1]: 5.219; pIC50 (Wolbachia pipientis): 5.441; IC50 (Wolbachia pipientis; Wolbachia pipientis): 6.39 µM |
| COc1ccc2[nH]cc(-c3ccnc(NC4CCCC4)n3)c2c1 | 4.561 | 21.8 | 5.019 and 4.85 | 14.6 | 2.65 |  |  |  |
| CCN(Cc1c(F)cccc1Cl)c1cc(C2CCNCC2)nc(C)n1 | 5.445 | 3.56 | 5.239 and 5.238 | 4.96 | 4.56 | 24.4 | 37.4 | pIC50 (Plasmodium falciparum): 6.254; IC50 (Plasmodium falciparum): 0.495 µM |
| CC(N)C(=O)N1CCC(Oc2cccc(C(F)(F)F)c2)CC1 (stereo not given) | 4.638 | 19.3 | 5.074 and 4.999 | 13.2 |  |  |  |  |
| Cc1nc2c(c(NCc3cc4ccccc4s3)n1)CCNCC2 | 5.15 | 5.79 | 5.606 and 5.633 | 2.29 |  | 38 | > 50.1 |  |
| CCC1CN(C(=O)c2csc3nc(-c4ccc(Cl)cc4)cn23)CCN1 (stereo not given) | 4.877 | 12.4 | 5.161 and 5.156 | 7.75 |  | 49.2 | 17.9 |  |
| CCCOc1ccccc1CCCNc1ncnc2oc(C)nc12 | 4.492 and 4.801 |  | 5.583 and 5.61 | 4.09 |  | > 50.1 | 25.4 |  |
| CC(Nc1ncnc2c1CCNC2)c1ccc2c(c1)CCCC2 (stereo not given) | 4.725 | 25 | 4.894 and 4.867 | 8.18 |  |  |  |  |

| SMILES | pIC50 (Leishmania donovani) | IC50 (Leishmania donovani) [µM] | pIC50 (Trypanosoma brucei) | IC50 (Trypanosoma brucei) [µM] | IC50 [1] [µM] | IC50 [3] [µM] | IC50 [4] [µM] | further results |
| --- | --- | --- | --- | --- | --- | --- | --- | --- |
| Cc1sc2nc(CCN)nc(N(C)CCCC3CCCO3)c2c1C (stereo not given) |  | > 50.1 | 4.729 and 4.748 | 22.5 |  |  |  |  |
| CCNC(=O)[C@@H]1C[C@@H](N)CN1Cc1ccc(Sc2ccc(C)cc2)o1 | 4.875 | 13.8 | 5.166 and 5.161 | 6.83 |  |  |  |  |
| Clc1cccc(C2CCN(c3ncnc4c3CCNC4)C2)c1 (stereo not given) | 4.674 | 23.9 | 4.718 and 4.683 | 19.9 |  | 29.6 | > 50.1 |  |
| OC(CNc1nc(C2CCCC2)nc2c1CCNCC2)C(F)(F)F (stereo not given) | 4.72 and 4.703 | 18.4 | 5.186 and 5.15 | 6.61 |  |  |  |  |
| CC(Nc1ncnc2c1CCNC2)c1ccc(C(C)(C)C)cc1 (stereo not given) | 4.856 | 19.6 | 4.656 and 4.706 | 20.6 |  |  |  |  |
| Nc1cc(N2CCC(c3cc(Cc4ccccc4)n[nH]3)CC2)ccn1 | 4.671 | 17.4 | 5.138 and 5.184 | 6.85 | 4.92 |  |  | pIC50 [1]: 5.141; IC50 (Histidine--tRNA ligase [6]): 69.6 µM and 73.8 µM |
| COCCN(CC1CC1)c1nc(CCN)nc2sc(C)c(C)c12 |  | > 25.1 | 4.814 and 4.866 | 16.2 |  |  |  |  |
| CN(Cc1cccc(O)c1)CC1CCCN(CCc2ccc(Cl)cc2)C1 (stereo not given) | 5.277 and 4.854 |  | 5.504 and 5.492 | 3.82 |  |  |  | pIC50 (Plasmodium falciparum): 6.224; IC50 (Plasmodium falciparum): 0.634 µM |
| CN(C)S(=O)(=O)c1ccc(-c2nc(C#N)c(NC(C)(C)C)o2)o1.Cl |  | > 50.1 | 4.737 and 4.726 | 18.4 | 7.65 |  |  | IC50 [2]: 11.3 µM; IC50 (ClpP1P2): > 100 µM |
| Cc1cc(C)n(CCCn2cncc2-c2ccc3c(c2)CC(C)N3C)n1.Cl (stereo not given) |  |  | 4.689 and 4.712 | 28.9 |  |  |  | IC50 [7]: > 30.2 µM; IC50 (Histidine--tRNA ligase [6]): 23.7 µM and 22.2 µM; pIC50 (Plasmodium falciparum): 5.88; IC50 (Plasmodium falciparum): 1.59 µM; pIC50 [2]: 4.037; IC50 [2]: 76.7 µM; IC50 (ClpP1P2): > 100 µM |
| Cl.NC1CCc2nc(-c3cccnc3)nc(Nc3ccc(F)cc3)c2C1 (stereo not given) | 5.001 | 8.3 | 5.072 and 4.886 | 7.84 |  | 48.6 | 22.2 | pIC50 (Plasmodium falciparum): 6.698; IC50 (Plasmodium falciparum): 0.204 µM; pIC50 [2]: 4.893; IC50 [2]: 6.43 µM |
| Cl.NC1CCc2nc(-c3ccncc3)nc(Nc3cccc(F)c3)c2C1 (stereo not given) | 5.181 | 5.99 | 5.636 and 5.623 | 2.41 | 3.66 |  |  | IC50 (Histidine--tRNA ligase [6]): 46.3 µM and 51.2 µM; pIC50 [2]: < 4; IC50 [2]: 50.4 µM |
| Cc1nc(C2(O)CCCNCC2)sc1CCOc1ccc(F)c(F)c1.Cl (stereo not given) | 4.936 | 11.6 | 5.175 and 5.131 | 6.99 |  |  |  | IC50 (Tryptophan--tRNA ligase): > 195 µM |
| Cc1nc(C2(O)CCCNCC2)sc1CCOc1ccc(Cl)cc1.Cl (stereo not given) | 4.792 | 8.46 | 5.216 and 5.242 | 5.07 | 11 |  |  |  |
| FC1(F)CCN(Cc2cccnc2)CC12CCN(c1ccccc1)C2.O=C(O)C(F)(F)F.O=C(O)C(F)(F)F.O=C(O)C(F)(F)F (stereo not given) |  |  | 5.234 and 5.17 | 6.05 |  | 12.5 | 43.8 | IC50 [7]: > 30.2 µM; IC50 (Histidine--tRNA ligase [6]): 13.6 µM and 18.6 µM; pIC50 (Plasmodium falciparum): 5.955; IC50 (Plasmodium falciparum): 1.16 µM |

Reference: ChEMBL document CHEMBL3988442, “University of Dundee, Small-Polar-MMV Screening Library” (2021)
